Results published in US8993839B2, “Plant-based production of heterologous proteins” (The Regents of the University of California, priority 2010, dated 2015).

Target: Acidothermus cellulolyticus β-1,4-endoglucanase E1 (P. pastoris-produced) (Acidothermus cellulolyticus, UniProt P54583)
Assay: Michaelis-Menten kinetics of purified E1 (produced in P. pastoris, IMAC purified): cleavage of MUC to cellobiose and MU at various temperatures
Format: biochemical
Conditions: substrate MUC, E1 concentration by Bradford assay
Method: Endoglucanase activity assay: Endoglucanase (E1) cleaves methylumbelliferyl-tagged cellobiose (MUC), releasing methylumbelliferone (MU). The MU fluorescence can be measured to determine E1 activity. The relative fluorescence readings of 0.024 to 3.0 μM MU solutions were used to create a linear standard curve. Samples containing E1 were diluted so the concentration of MU released fell within the standard curve. A 60 μl aliquot of diluted supernatant was added to 540 μl of acetate buffer (200 mM acetate, pH 5.5, 100 mM NaCl) and 200 μl of substrate (500 μM MUC). 200 μl of reaction was sampled at time zero and after 30 minutes and added to 800 μl of stop buffer (150 mM glycine, pH 10). The change in fluorescence over time was measured with a VersaFluor fluorometer (Bio-Rad). Fluorescence was converted to an activity, and the specific activity reported in the literature was used to approximate the concentration of E1 in Pichia supernatants. The Michaelis-Menten kinetic parameters of purified endoglucanase were determined. The E1 was produced in P. pastoris and purified by IMAC (immobilized metal affinity chromatography). E1 cleaves the substrate (MUC) into cellobiose and a fluorophore (MU), the concentration of which can be monitored over time. When run at 65° C. and […] substrate, this is the reaction used for the activity assay for E1 in plant extracts and yeast cultures. In this set of experiments, the substrate concentration was varied to determine the kinetic parameters at different temperatures. The rate for a reaction displaying Michaelis-Menten kinetics is shown in Equation 1. The rate depends on the catalysis rate (kcat), the total enzyme concentration (ET), the adsorption/desorption rates which are lumped into the Michaelis-Menten constant (KM), and the substrate concentration (S). At high substrate concentrations (S>>KM), the rate approaches a maximum, and […] is often written as Vmax. The parameters Vmax and KM can be determined experimentally by varying the substrate concentration (S) and measuring the reaction rate (V) at each concentration. Equation 1 can be rearranged as a linear equation (Equation 2). When the reciprocal of the reaction rate (V) is plotted against the reciprocal of the substrate concentration (S), a line fitting the data points can be used to determine KM/Vmax (the slope) and 1/Vmax (y-intercept). A Bradford assay was used to determine the E1 protein concentration in each sample, and this value of ET was used to calculate the kcat values in Table 1. Table 1 depicts a summary of Michaelis-Menten parameters for E1-catalyzed degradation of MUC to MU at various temperatures.

Chain of Acidothermus cellulolyticus β-1,4-endoglucanase E1 (P. pastoris-produced) (P54583 other isoform, or with tags, fused parts or gaps): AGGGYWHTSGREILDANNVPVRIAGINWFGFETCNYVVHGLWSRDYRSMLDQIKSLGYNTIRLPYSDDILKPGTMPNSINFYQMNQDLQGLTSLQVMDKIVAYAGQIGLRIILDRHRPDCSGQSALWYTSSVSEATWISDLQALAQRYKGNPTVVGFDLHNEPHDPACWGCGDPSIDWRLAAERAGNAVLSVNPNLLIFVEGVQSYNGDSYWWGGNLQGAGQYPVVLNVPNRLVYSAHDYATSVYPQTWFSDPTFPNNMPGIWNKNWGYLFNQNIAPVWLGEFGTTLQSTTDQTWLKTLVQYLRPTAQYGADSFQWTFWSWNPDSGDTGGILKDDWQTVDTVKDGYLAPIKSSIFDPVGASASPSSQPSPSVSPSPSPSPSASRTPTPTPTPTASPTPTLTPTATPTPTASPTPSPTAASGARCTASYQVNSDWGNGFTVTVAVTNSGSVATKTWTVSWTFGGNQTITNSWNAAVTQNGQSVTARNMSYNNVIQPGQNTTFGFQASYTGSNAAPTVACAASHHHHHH

kcat (50 °C): 106 ± 5 L/min
kcat (65 °C): 309 ± 13 L/min
kcat (80 °C): 667 ± 92 L/min
kcat (93 °C, uncertainty approaches 100%, not used further): 292 ± 284 L/min
Structure (SMILES): Cc1cc(=O)oc2cc(O[C@@H]3O[C@H](CO)[C@@H](O[C@@H]4O[C@H](CO)[C@@H](O)[C@H](O)[C@H]4O)[C@H](O)[C@H]3O)ccc12 [MUC, methylumbelliferyl-tagged cellobiose]
